Experimental data from US7407988B2, “Carbamic acid compounds comprising a sulfonamide linkage as HDAC inhibitors” (Topotarget UK Limited, priority 2000, dated 2008).
Where two headings read alike, the source gives them in different places.

Experiments:
[1] = system: K11 HPV E7 transformed human keratinocyte line; experiment: Secondary assay: cell proliferation WST-1, K11; format: cell-based; conditions: Table 2, 48 h, read-out: Cell Proliferation Inhibition WST-1 (IC50 unless otherwise specified) K11
[2] = system: JURKAT human T-cell line; experiment: Secondary assay: cell proliferation WST-1, Jurkat; format: cell-based; conditions: Table 2, 48 h, read-out: Cell Proliferation Inhibition WST-1 (IC50 unless otherwise specified) Jurkat
[3] = system: NHEK-Ad primary human adult keratinocyte line; experiment: Secondary assay: cell proliferation WST-1, NHEK-Ad; format: cell-based; conditions: Table 2, NHEK-AD, 48 h, read-out: Cell Proliferation Inhibition WST-1 (IC50 unless otherwise specified) NHEK-AD
[4] = system: HeLa cells; experiment: Secondary assay: cell proliferation WST-1, HeLa; format: cell-based; conditions: Homo sapiens, Table 2, 48 h, read-out: Cell Proliferation Inhibition WST-1 (IC50 unless otherwise specified) HeLa
[5] = system: HDAC (HeLa cell extract); experiment: Primary assay: deacetylase activity, HeLa cell extract as source of HDAC; format: biochemical, human
From the text: Briefly, this assay relies on the release of radioactive acetate from a radioactively labelled histone fragment by the action of HDAC enzyme. Test compounds, which inhibit HDAC, reduce the yield of radioactive acetate. Signal (e.g., scintillation counts) measured in the presence and absence of a test compound provide an indication of that compound's ability to inhibit HDAC activity. Decreased activity indicates increased inhibition by the test compound.
The histone fragment was an N-terminal sequence from histone H4, and it was labelled with radioactively labelled acetyl groups using tritiated acetylcoenzyme A (coA) in conjunction with an enzyme which is the histone acetyltransferase domain of the transcriptional coactivator p300. […] The acetylated peptide was then separated from free acetyl coA by size exclusion chromatography on Sephadex G-15 (Sigma G-15-120), using distilled H2O as the mobile phase.
After purification of the radiolabelled histone fragment, it was incubated with a source of HDAC (e.g., an extract of HeLa cells (a rich source of HDAC), recombinantly produced HDAC1 or HDAC2) and any released acetate was extracted into an organic phase and quantitatively determined using scintillation counting. By including a test compound with the source of HDAC, that compound's ability to inhibit the HDAC was determined.
Two cell volumes of extraction buffer were used, and particulate material was centrifuged out (20800 g, 4° C., 10 min). The supernatant extract having deacetylase activity was aliquotted and frozen for storage.
A source of HDAC (e.g., 2 μL of crude HeLa extract, 5 μL of HDAC1 or HDAC2; in elution buffer, as above) was incubated with 3 μL of radioactively labelled peptide along with appropriate dilutions of candidate compounds (1.5 μL) in a total volume of 150 μL of buffer (20 mM Tris pH 7.4, 10% glycerol). The reaction was carried out at 37° C. for one hour, after which the reaction was stopped by adding 20 μL of 1 M HCl/0.4 M sodium acetate. […] Radioactivity was measured using a Tri-Carb 21 00TR Liquid Scintillation Analyzer (Packard).
Percent activity (% activity) for each test compound was calculated as: % activity={(S^C−B)/(S°−B)}×100 wherein S^C denotes signal measured in the presence of enzyme and the compound being tested, S° denotes signal measured in the presence of enzyme but in the absence of the compound being tested, and B denotes the background signal measured in the absence of both enzyme and compound being tested.

[6] = Table 1, read-out: HDAC Inhibition (IC50 unless otherwise specified) HeLa
[7] = comparative tables, HDAC inhibition, read-out: HeLa IC50

## Nc1ccccc1NC(=O)c1ccc(CNC(=O)OCc2cccnc2)cc1 [MS-275, reference compound]
[1]
  IC50: 9160 nM
[2]
  IC50: 365 nM
[3]
  IC50: 3100 nM

## O=C(/C=C/c1cccc(S(=O)(=O)Nc2ccccc2)c1)NO [PX105684, N-Hydroxy-3-(3-phenylsulfamoylphenyl)acrylamide]
[1]; Homo sapiens, Keratinocyte
  IC50: 2400 nM
[4]
  IC50: 2200 nM
[2]; Homo sapiens
  IC50: 200 nM
[3]; Homo sapiens, Keratinocyte
  IC50: 1500 nM

## O=C(CCCCCCCS(=O)(=O)Nc1ccccc1)NO [PX117245]
[4]
  IC50: 310 nM
[2]; Homo sapiens
  IC50: 1100 nM
[3]; Homo sapiens, Keratinocyte
  IC50: 520 nM
other
  melting point: 87 to 88 °C
[5]; [6]
  IC50: 16 nM

## O=C(/C=C/c1cccc(NS(=O)(=O)/C=C/c2ccccc2)c1)NO [PX117446, N-Hydroxy-3-{3-[(E)-2-phenylethenesulfonylamino]phenyl}acrylamide]
[1]; Homo sapiens, Keratinocyte
  IC50: 3700 nM
[4]
  IC50: 6000 nM
[2]; Homo sapiens
  IC50: 430 nM
other
  melting point: 171 °C
[5]; [6]
  IC50: 18 nM
[5]; [7]
  IC50: 18 nM

## O=C(/C=C/C#Cc1ccc(S(=O)(=O)Nc2ccccc2)cc1)NO [PX117453, E-5-(4-Phenylsulfamoylphenyl)pent-2-en-4-ynoic acid hydroxyamide]
[1]; Homo sapiens, Keratinocyte
  IC50: 4200 nM
[4]
  IC50: 5700 nM
[2]; Homo sapiens
  IC50: 1100 nM
other
  melting point: 161 to 163 °C
[5]; [6]
  IC50: 45 nM
[5]; [7]
  IC50: 45 nM

## O=C(/C=C/c1cccc(S(=O)(=O)NCc2ccco2)c1)NO [PX117710, 3-{3-[(Furan-2-ylmethyl)-sulfamoyl]-phenyl}-N-hydroxyacrylamide]
[1]; Homo sapiens, Keratinocyte
  IC50: 4000 nM
[4]
  IC50: 5000 nM
[2]; Homo sapiens
  IC50: 420 nM
other
  melting point: 165 °C
[5]; [6]
  IC50: 125 nM

## COc1cccc(NS(=O)(=O)c2cccc(/C=C/C(=O)NO)c2)c1 [PX117712, N-Hydroxy-3-[3-(3-methoxy-phenylsulfamoyl)-phenyl]-acrylamide]
[1]; Homo sapiens, Keratinocyte
  IC50: 650 nM
[4]
  IC50: 1100 nM
[2]; Homo sapiens
  IC50: 130 nM
other
  melting point: 137 °C
[5]; [6]
  IC50: 14 nM

## O=C(/C=C/c1cccc(S(=O)(=O)Nc2ccc(-c3ccccc3)cc2)c1)NO [PX117715, 3-[3-(Biphenyl-4-ylsulfamoyl)-pheny]-N-hydroxy-acrylamide]
[1]; Homo sapiens, Keratinocyte
  IC50: 930 nM
[4]
  IC50: 1500 nM
[2]; Homo sapiens
  IC50: 290 nM
other
  melting point: 188 °C
[5]; [6]
  IC50: 10 nM

## O=C(/C=C/c1cccc(S(=O)(=O)Nc2cccc(Br)c2)c1)NO [PX117734, 3-[3-(3-Bromo-phenylsulfamoyl)-phenyl]-N-hydroxy-acrylamide]
[1]; Homo sapiens, Keratinocyte
  IC50: 880 nM
[4]
  IC50: 2100 nM
[2]; Homo sapiens
  IC50: 79 nM
other
  melting point: 135.5 to 136.5 °C
[5]; [6]
  IC50: 8 nM

## O=C(/C=C/c1cccc(S(=O)(=O)NC(c2ccccc2)c2ccccc2)c1)NO [PX117773, 3-[3-(Benzhydryl-sulfamoyl)-phenyl]-N-hydroxy-acrylamide]
[1]; Homo sapiens, Keratinocyte
  IC50: 6200 nM
[4]
  IC50: 3400 nM
[2]; Homo sapiens
  IC50: 1200 nM
other
  melting point: 180 °C
[5]; [6]
  IC50: 67 nM

## O=C(/C=C/c1cccc(S(=O)(=O)NC(Cc2ccccc2)c2ccccc2)c1)NO (stereo not drawn) [PX117774, 3-[3-(1,2-Diphenyl-ethylsulfamoyl)-phenyl]-N-hydroxy-acrylamide]
[1]; Homo sapiens, Keratinocyte
  IC50: 7000 nM
[4]
  IC50: 6400 nM
[2]; Homo sapiens
  IC50: 1000 nM
other
  melting point: 150 °C
[5]; [6]
  IC50: 396 nM

## O=C(/C=C/c1cccc(S(=O)(=O)Nc2ccc(OC(F)(F)F)cc2)c1)NO [PX117775, N-Hydroxy-3-[3-(4-trifluoromethoxy-phenylsulfamoyl)-phenyl]-acrylamide]
[1]; Homo sapiens, Keratinocyte
  IC50: 5300 nM
[4]
  IC50: 2100 nM
[2]; Homo sapiens
  IC50: 530 nM
other
  melting point: 131 °C
[5]; [6]
  IC50: 16 nM

## COc1ccc(S(=O)(=O)Nc2cccc(/C=C/C(=O)NO)c2)cc1OC [PX117780, 3-[3-(3,4-Dimethoxy-benzenesulfonylamino)-phenyl]-N-hydroxy-acrylamide]
[1]; Homo sapiens, Keratinocyte
  IC50: 10500 nM
[4]
  IC50: 16800 nM
[2]; Homo sapiens
  IC50: 4000 nM
other
  melting point: 158 °C
[5]; [6]
  IC50: 125 nM

## O=C(/C=C/c1cccc(NS(=O)(=O)c2ccc(-c3ccccc3)cc2)c1)NO [PX117781, 3-[3-(Biphenyl-4-sulfonylamino)-phenyl]-N-hydroxy-acrylamide]
[1]; Homo sapiens, Keratinocyte
  IC50: 2200 nM
[4]
  IC50: 3400 nM
[2]; Homo sapiens
  IC50: 800 nM
other
  melting point: 115 °C
[5]; [6]
  IC50: 58 nM

## COc1ccc(NS(=O)(=O)c2cccc(/C=C/C(=O)NO)c2)cc1OC [PX117782, 3-[3-(3,4-Dimethoxy-phenylsulfamoyl)-phenyl]-N-hydroxy-acrylamide]
[1]; Homo sapiens, Keratinocyte
  IC50: 15600 nM
[4]
  IC50: 2900 nM
[2]; Homo sapiens
  IC50: 350 nM
other
  melting point: 191 °C
[5]; [6]
  IC50: 38 nM

## O=C(/C=C/c1cccc(S(=O)(=O)Nc2ccccc2F)c1)NO [PX117787, 3-[3-(2-Fluoro-phenylsulfamoyl)-phenyl]-N-hydroxy-acrylamide]
[1]; Homo sapiens, Keratinocyte
  IC50: 1200 nM
[4]
  IC50: 2600 nM
[2]; Homo sapiens
  IC50: 500 nM
other
  melting point: 102 to 103 °C
[5]; [6]
  IC50: 67 nM

## O=C(/C=C/c1cccc(S(=O)(=O)Nc2cccc(F)c2)c1)NO [PX117788, 3-[3-(3-Fluoro-phenylsulfamoyl)-phenyl]-N-hydroxy-acrylamide]
[1]; Homo sapiens, Keratinocyte
  IC50: 1700 nM
[4]
  IC50: 2000 nM
[2]; Homo sapiens
  IC50: 290 nM
other
  melting point: 130 to 133 °C
[5]; [6]
  IC50: 36 nM

## O=C(/C=C/c1cccc(S(=O)(=O)Nc2ccc(OC(F)F)cc2)c1)NO [PX117789, 3-[3-(4-Difluoromethoxy-phenylsulfamoyl)-phenyl]-N-hydroxy-acrylamide]
[1]; Homo sapiens, Keratinocyte
  IC50: 800 nM
[4]
  IC50: 1100 nM
[2]; Homo sapiens
  IC50: 300 nM
other
  melting point: 91 to 93 °C
[5]; [6]
  IC50: 30 nM

## COc1ccc(C(F)(F)F)cc1NS(=O)(=O)c1cccc(/C=C/C(=O)NO)c1 [PX117791, N-Hydroxy-3-[3-(2-methoxy-5-trifluoromethyl-phenylsulfamoyl)-phenyl]-acrylamide]
[1]; Homo sapiens, Keratinocyte
  IC50: 6700 nM
[4]
  IC50: 3600 nM
[2]; Homo sapiens
  IC50: 1300 nM
other
  melting point: 207 °C (dec.)
[5]; [6]
  IC50: 250 nM

## O=C(/C=C/c1ccc(S(=O)(=O)Nc2ccc(-c3ccccc3)cc2)cc1)NO [PX117792, N-Hydroxy-3-[4-(biphenyl-4-ylsulfamoyl)-phenyl]-acrylamide]
[1]; Homo sapiens, Keratinocyte
  IC50: 400 nM
[4]
  IC50: 1400 nM
[2]; Homo sapiens
  IC50: 430 nM
other
  melting point: 211 to 211.5 °C
[5]; [6]
  IC50: 48 nM

## O=C(/C=C/c1ccc(NS(=O)(=O)c2ccc(-c3ccccc3)cc2)cc1)NO [PX117793, (E)-N-Hydroxy-3-[4-(4-biphenylsulfonylamino)-phenyl]-2-propenamide]
[1]; Homo sapiens, Keratinocyte
  IC50: 2700 nM
[4]
  IC50: 2000 nM
[2]; Homo sapiens
  IC50: 500 nM
other
  melting point: 190 to 191.5 °C
[5]; [6]
  IC50: 50 nM

## COc1ccc(S(=O)(=O)Nc2ccc(/C=C/C(=O)NO)cc2)cc1OC [PX117794, (E)-N-Hydroxy-3-[4-(3,4-dimethoxyphenylsulfonylamino)-phenyl]-2-propenamide]
[1]; Homo sapiens, Keratinocyte
  IC50: 2300 nM
[4]
  IC50: 3300 nM
[2]; Homo sapiens
  IC50: 600 nM
other
  melting point: 178.5 to 179 °C
[5]; [6]
  IC50: 24 nM

## O=C(/C=C/c1ccc(S(=O)(=O)Nc2ccc(Br)cc2)cc1)NO [PX117795, N-Hydroxy-3-[4-(4-bromo-phenylsulfamoyl)-phenyl]-acrylamide]
[1]; Homo sapiens, Keratinocyte
  IC50: 1500 nM
[4]
  IC50: 3400 nM
[2]; Homo sapiens
  IC50: 510 nM
other
  melting point: 219 to 220.5 °C
[5]; [6]
  IC50: 13 nM

## CCn1c2ccccc2c2cc(NS(=O)(=O)c3cccc(/C=C/C(=O)NO)c3)ccc21 [PX117798]
[1]; Homo sapiens, Keratinocyte
  IC50: 350 nM
[4]
  IC50: 900 nM
[2]; Homo sapiens
  IC50: 3600 nM
other
  melting point: 130 to 133 °C
[5]; [6]
  IC50: 50 nM

## CC(/C=C/C(=O)NO)=C\[C@@H](C)C(=O)c1ccc(N(C)C)cc1 [TSA, trichostatin A, reference compound]
[1]; Homo sapiens, Keratinocyte
  IC50: 380 nM
[4]
  IC50: 350 nM
[2]; Homo sapiens
  IC50: 42 nM
[3]; Homo sapiens, Keratinocyte
  IC50: 200 nM
